Data: paper PMC13155482 (Science Advances, 2025)
Residue numbers refer to the chain shown, from its start. Where two headings read alike, the source gives them in different places. Blank lines part the entries; values can stand above or below the compound they belong to.

What was measured:
5-HT1A, Gi1 D315P = molecular target: T1, 5-HT1A, Gi1 D315P (Homo sapiens, UniProt P08908); conditions: activity comparable to vehicle
T1 sequence (P08908 1-422): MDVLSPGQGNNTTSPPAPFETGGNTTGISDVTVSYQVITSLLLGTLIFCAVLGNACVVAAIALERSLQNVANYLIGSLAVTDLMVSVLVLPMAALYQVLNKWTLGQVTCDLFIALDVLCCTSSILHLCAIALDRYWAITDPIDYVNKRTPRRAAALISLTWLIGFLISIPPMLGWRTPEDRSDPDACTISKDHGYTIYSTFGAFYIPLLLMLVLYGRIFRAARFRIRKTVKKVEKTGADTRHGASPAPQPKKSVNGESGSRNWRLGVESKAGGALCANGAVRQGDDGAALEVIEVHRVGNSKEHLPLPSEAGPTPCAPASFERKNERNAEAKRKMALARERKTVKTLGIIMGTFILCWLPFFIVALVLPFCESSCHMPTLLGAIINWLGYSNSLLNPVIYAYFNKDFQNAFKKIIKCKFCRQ

5-HT1A [1] = molecular target: T2, 5-HT1A (Homo sapiens, UniProt P08908); assay: BRET Gi1 activation at WT 5-HT1A; conditions: Gi1, WT 5-HT1A, compared to antagonist methiothepin
T2 sequence (P08908 1-422): T1 sequence (P08908 1-422)

5-HT1A A222V = molecular target: T3, 5-HT1A A222V (Homo sapiens, UniProt P08908, A222V); conditions: Goa
T3 sequence (P08908 1-422 A222V): T1 sequence (P08908 1-422) with A222V

5-HT1A I189A = molecular target: T4, 5-HT1A I189A (Homo sapiens, UniProt P08908, I189A); conditions: 5-HT1A I189 mutant
T4 sequence (P08908 1-422 I189A): T1 sequence (P08908 1-422) with I189A

5-HT1A S199A [2] = molecular target: T5, 5-HT1A S199A (Homo sapiens, UniProt P08908, S199A); conditions: Gz
T5 sequence (P08908 1-422 S199A): T1 sequence (P08908 1-422) with S199A

5-HT1A [3] = molecular target: T2, 5-HT1A; assay: BRET Goa activation at WT 5-HT1A
5-HT1A [4] = molecular target: T2, 5-HT1A; assay: 5-HT1A-mediated cAMP inhibition; type: cell-based
5-HT1A S199A [5] = molecular target: T5, 5-HT1A S199A; conditions: Gi1, 5-HT1A S199A
5-HT1A S199A [6] = molecular target: T5, 5-HT1A S199A; assay: cell-based; conditions: EC50, Goa
5-HT1A F112A [7] = molecular target: T6, 5-HT1A F112A (Homo sapiens, UniProt P08908, F112A); conditions: Goa
T6 sequence (P08908 1-422 F112A): T1 sequence (P08908 1-422) with F112A

5-HT1A F112A [8] = molecular target: T6, 5-HT1A F112A; conditions: Gz
5-HT1A F112A [9] = molecular target: T6, 5-HT1A F112A; conditions: Gi1, 5-HT1A F112A

- Gi1 activation (5-HT1A [1]): no significant activity
- Emax (%WT 5-HT) (5-HT1A A222V): 64.7 %WT 5-HT
- effect of I189 mutation on activity (5-HT1A I189A): ablates asenapine activity
- activation (5-HT1A S199A [2]): no significant activity
- EC50 (5-HT1A [3]): 9.12 nM
- agonist character in cAMP inhibition (5-HT1A [4]): partial agonists
- activation (5-HT1A S199A [5]): no significant activity
- EC50 (5-HT1A S199A [6]): 6.84 nM
- effect of F112A mutation on efficacy (5-HT1A F112A [7]): seemingly ablates
Compound: CN1CC2c3ccccc3Oc3ccc(Cl)cc3C2C1 (stereo not drawn) [Asenapine]
- signaling through Gi1 D315P (5-HT1A, Gi1 D315P): loss of concentration-dependent agonist signaling

- effect of F112A mutation on efficacy (5-HT1A F112A [8]): seemingly ablates efficacy
- effect of F112A mutation on efficacy (5-HT1A F112A [9]): seemingly ablates efficacy
- effect of F112A mutation on efficacy (5-HT1A F112A [7]): seemingly ablates efficacy
Compound: O=C1CC2(CCCC2)CC(=O)N1CCCCN1CCN(c2ncccn2)CC1 [Buspirone]

- agonist character in cAMP inhibition (5-HT1A [4]; HEK293T, compared to 5-HT): nearly a full agonist
Compound: CN1CCN2c3ccccc3Cc3ccccc3C2C1 (stereo not drawn) [mianserin]

- agonist character in cAMP inhibition (5-HT1A [4]; HEK293T, compared to 5-HT): partial agonists
Compound: O=C1CC2(CCCC2)CC(=O)N1CCCCN1CCN(c2nsc3ccccc23)CC1 [Tiospirone]
